Measurements from patent publication US10183941B2, “Pyrimidine or pyridopyridone compound and application thereof” (GUANGZHOU BEBETTER MEDICINE TECHNOLOGY CO., LTD., priority 2015, dated 2019).

Columns and labels:
CDK2 = target: T1, CDK2 (Homo sapiens, UniProt P24941); assay: CDK2 activity inhibition experiment (Caliper mobility shift assay); type: biochemical; settings: enzyme activity inhibition; read-out: CDK2 IC50 class
T1 construct: purchased Carna 04-103
Experimental: After being incubated at 28° C. for 60 minutes, 25 μl of stop solution was added to stop the reaction. Conversion rate data was read from Caliper EZ Reader II (Caliper Life Sciences). The conversion rate data was converted into inhibition rate data. […] The curve was plotted with compound concentration and inhibition rate as horizontal and vertical coordinates, and the IC50 was calculated by fitting the curve using XLFit excel add-in version 4.3.1 software. Inhibition rate %=(max-conversion rate)/(max-min)×100.

[1] = Pharmacokinetic (PK) experiment in rats; type: in vivo; settings: male, SD, plasma, po, rat, intragastric 20 mg/kg
Experimental: Male SD rats weighing 300-350 g were fasted overnight prior to the experiment. The compounds to be tested were dissolved in 30% sulfobutyl ether-β-cyclodextrin (SBE-β-CD) and the rats were intragastric administration at 20 mg/kg. The blood was taken from the tails of the rats at 15 min, 30 min, and 1, 2, 3, 4, 6, 8 and 24 hours after administration, with about 0.3 ml of blood at each time point, and then the blood was placed in a centrifuge tube containing K2-EDTA, and centrifuged (2,000 g, 10 min, 4° C.) to take the plasma which was then stored in an ultra-low temperature freezer at −80° C. 50 μL, of plasma sample was mixed with 5 μL of internal standard (IS) and extracted with ethyl acetate. The residue was redissolved in acetonitrile after vacuum drying. The sample was filtered and injected into LC-MS/MS for analysis to determine the concentration of the compounds to be tested.
In the table: Tmax refers to the peak time, Cmax refers to the maximum plasma drug concentration, T1/2 is the half-life, AUClast refers to the area under the 0-24 hour time-concentration curve, AUCinf refers to the area under the 0-Inf time-concentration curve.

Structure (SMILES): CC(=O)c1c(C)c2cnc(Nc3ccc(C4CCN(CCS(C)(=O)=O)CC4)cn3)nc2n(C2CCCC2)c1=O [Compound 1, 6-acetyl-8-cyclopentyl-5-methyl-2-((5-(1-(2-(methylsulfonyl)ethyl)piperidin-4-yl)pyridin-2-yl)amino)pyrido[2,3-d]pyrimidin-7(8H)-one]
- IC50 (CDK2): > 500 nM
- Cmax [1]: 1450 ng/mL
- Tmax [1]: 1.5 h
- half-life [1]: 1.5 h
- AUC(0-t) ([1]; 0-24 hour): 4400 ng·h/mL
- AUC(0-inf) ([1]; 0-Inf): 4540 ng·h/mL
